Reference: US10143681B2, “Factor XIa inhibitors” (MERCK SHARP & DOHME CORP., priority 2016, dated 2018)

What was measured:
human Factor XIa = human Factor XIa (Homo sapiens (Human), UniProt P03951); test: Factor XIa Assay; assay type: biochemical; details: for IC50: human Factor XIa 0.04 nM, 30 min pre-incubation at 25° C., substrate GPR-AFC, read-out: FXIa IC50
Outline: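 IC50 values were obtained from four-parameter log(inhibitor)-response fits of % inhibition, then converted to Ki using Cheng-Prusoff. GPR-AFC hydrolysis was read at 400/505 nm after 60 min at 25 °C.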

Human plasma kallikrein = Human plasma kallikrein (Homo sapiens (Human), UniProt P03952); test: Kallikrein Assay; assay type: biochemical; details: purified Human plasma kallikrein 0.5 nM, substrate Acetyl-K-P-R-AFC; read-out: P. KLK IC50
Chain of Human plasma kallikrein (P03952 391-638): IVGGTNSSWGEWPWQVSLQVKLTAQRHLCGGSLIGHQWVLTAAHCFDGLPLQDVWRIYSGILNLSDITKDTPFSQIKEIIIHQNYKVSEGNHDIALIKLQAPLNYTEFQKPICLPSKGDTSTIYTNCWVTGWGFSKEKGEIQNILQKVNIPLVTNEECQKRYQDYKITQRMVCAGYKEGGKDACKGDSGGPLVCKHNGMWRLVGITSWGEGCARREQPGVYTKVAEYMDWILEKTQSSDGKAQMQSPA
Chain of Human plasma kallikrein (P03952 20-390 partner): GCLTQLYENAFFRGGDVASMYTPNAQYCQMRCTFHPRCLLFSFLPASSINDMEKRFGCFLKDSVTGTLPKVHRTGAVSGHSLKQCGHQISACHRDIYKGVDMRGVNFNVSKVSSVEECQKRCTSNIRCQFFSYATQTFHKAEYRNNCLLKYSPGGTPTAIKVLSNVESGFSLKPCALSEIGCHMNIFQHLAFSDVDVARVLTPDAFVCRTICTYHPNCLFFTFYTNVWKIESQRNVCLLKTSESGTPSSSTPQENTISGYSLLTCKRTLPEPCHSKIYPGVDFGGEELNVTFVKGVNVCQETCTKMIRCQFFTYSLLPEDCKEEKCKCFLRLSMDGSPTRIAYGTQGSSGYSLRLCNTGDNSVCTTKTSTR
Description: The effectiveness of a compound of the present invention as an inhibitor of Kallikrein can be determined using a relevant purified serine protease, and an appropriate synthetic substrate. The rate of hydrolysis of the chromogenic or fluorogenic substrate by the relevant serine protease was measured both in the absence and presence of compounds of the present invention. Assays were conducted at room temperature or at 37° C. […] A decrease in the rate of fluorescence change in the presence of inhibitor is indicative of enzyme inhibition. Such methods are known to one skilled in the art. The results of this assay are expressed as the half-maximal inhibitory concentrations (IC50), or the inhibitory constant, Ki.
Kallikrein determinations were made in 50 mM HEPES buffer at pH 7.4 containing 150 mM NaCl, 5 mM CaCl2, and 0.1% PEG 8000 (polyethylene glycol; Fisher Scientific). Determinations were made using purified Human plasma kallikrein at a final concentration of 0.5 nM (Enzyme Research Laboratories) and the synthetic substrate, Acetyl-K-P-R-AFC (Sigma # C6608) at a concentration of […].
Times required to achieve equilibration between enzyme and inhibitor were determined in control experiments. The reactions were performed under linear progress curve conditions and fluorescence increase measured at 405 Ex/510 Em nm. […] IC50 was determined by inflection point from a four parameter logistic curve fit. Ki was calculated using the Cheng Prusoff equation, Ki=IC50/(1+([S]/Km)).

[1] = test system: Human plasma (intrinsic coagulation cascade); test: Activated Partial Thromboplastin Time (aPTT) Assay; details: concentration that causes a 50% (1.5×) increase of clot time over vehicle
Description: Activated partial thromboplastin time (aPTT) is a clotting test that measures the intrinsic coagulation cascade. The test is performed in sodium citrated plasma. Human plasma is made by collecting blood from healthy donors of both genders into Na citrate tubes (Sarstedt coagulation 9NC/10 ml). Blood is centrifuged at 1500×g and the plasma is collected. aPTT is checked on each individual donor and those within the normal range (28-40 seconds) are pooled, aliquoted, and stored at −80 C. Test samples are prepared by spiking inhibitors or vehicle into plasma. These spiked samples are then run on a coagulation analyzer (STA-R Evolution, Stago Diagnostica). In general, the analyzer performs the following steps: Factor XII is activated by addition of ellagic acid (Pacific Hemostasis), and then time to clot is measured after re-calcification of the sample. Inhibition of FXI will cause aPTT clot time to be prolonged. The data is expressed as percent increase over vehicle control clot time and the concentration that causes a 50% (1.5×) percent increase of clot time are reported.

Chain of human Factor XIa (P03951 388-625): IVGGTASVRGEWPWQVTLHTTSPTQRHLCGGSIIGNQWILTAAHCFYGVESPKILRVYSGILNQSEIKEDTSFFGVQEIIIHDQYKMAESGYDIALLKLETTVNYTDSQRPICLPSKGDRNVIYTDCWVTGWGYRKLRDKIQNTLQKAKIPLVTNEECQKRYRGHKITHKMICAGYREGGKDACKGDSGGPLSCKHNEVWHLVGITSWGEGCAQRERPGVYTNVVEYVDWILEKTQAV
Chain of human Factor XIa (P03951 19-387 partner): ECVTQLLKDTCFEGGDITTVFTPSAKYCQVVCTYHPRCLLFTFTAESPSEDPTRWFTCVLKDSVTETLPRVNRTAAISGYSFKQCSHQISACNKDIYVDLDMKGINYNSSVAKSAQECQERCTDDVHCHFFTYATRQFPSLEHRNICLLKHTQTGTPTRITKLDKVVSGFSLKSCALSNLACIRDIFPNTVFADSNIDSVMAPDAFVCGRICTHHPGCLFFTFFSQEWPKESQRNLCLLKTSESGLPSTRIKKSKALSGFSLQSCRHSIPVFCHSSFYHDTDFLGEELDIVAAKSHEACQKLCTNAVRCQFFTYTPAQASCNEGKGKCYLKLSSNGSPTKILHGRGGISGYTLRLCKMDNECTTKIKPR

## Cc1cc(NC(=O)C(CC2CC2)c2ccc(-c3c(C(F)F)ccc(Cl)c3F)c[n+]2[O-])ccc1C(=O)O (single isomer, unassigned) [Example 122, 2-(1-((4-carboxy-3-methylphenyl)amino)-3-cyclopropyl-1-oxopropan-2-yl)-5-(3-chloro-6-(difluoromethyl)-2-fluorophenyl)pyridine 1-oxide]
Human Factor XIa
  IC50: 9.9 nM
Human plasma kallikrein
  IC50: 69.8 nM

## O=C(O)c1ccc(NC(=O)C(CC2CC2C(F)F)c2ccc(-c3c(C(F)F)ccc(Cl)c3F)c[n+]2[O-])cc1 (single isomer, unassigned) [Example 89, 2-(1-((4-carboxyphenyl)amino)-3-(2-(difluoromethyl)cyclopropyl)-1-oxopropan-2-yl)-5-(3-chloro-6-(difluoromethyl)-2-fluorophenyl)pyridine-1-oxide]
Human Factor XIa
  IC50: 0.6 nM
Human plasma kallikrein
  IC50: 7.1 nM

## O=C(O)c1ccc(NC(=O)C(CC2CC(F)C2)c2ccc(-c3c(OC(F)F)ccc(Cl)c3F)c[n+]2[O-])cc1 (single isomer, unassigned) [Example 102, 2-(1-((4-carboxyphenyl)amino)-3-(3-fluorocyclobutyl)-1-oxopropan-2-yl)-5-(3-chloro-6-(difluoromethoxy)-2-fluorophenyl)pyridine 1-oxide]
Human plasma kallikrein
  IC50: 31.8 nM
[1]
  aPTT (1.5x): 1 µM

## O=C(O)c1ccc(NC(=O)C(CC2CC2)c2ccc(-c3c(C(F)F)ccc(Cl)c3F)c[n+]2[O-])cc1F (single isomer, unassigned) [Example 118, 2-(1-((4-carboxy-3-fluorophenyl)amino)-3-cyclopropyl-1-oxopropan-2-yl)-5-(3-chloro-6-(difluoromethyl)-2-fluorophenyl)pyridine 1-oxide]
Human plasma kallikrein
  IC50: 14.6 nM
[1]
  aPTT (1.5x): 0.66 µM

## O=C(O)c1ccc(NC(=O)C(CC23CC(C2)C3)c2ccc(-c3c(C(F)F)ccc(Cl)c3F)c[n+]2[O-])cc1F (single isomer, unassigned) [Example 124, 2-(3-(bicyclo[1.1.1]pentan-1-yl)-1-((4-carboxy-3-fluorophenyl)amino)-1-oxopropan-2-yl)-5-(3-chloro-6-(difluoromethyl)-2-fluorophenyl)pyridine 1-oxide]
Human plasma kallikrein
  IC50: 4.7 nM
[1]
  aPTT (1.5x): 1.76 µM

## O=C(O)c1ccc(NC(=O)C(CC2CCC(F)(F)CC2)c2ccc(-c3c(OC(F)F)ccc(Cl)c3F)c[n+]2[O-])cc1 (single isomer, unassigned) [Example 39]
Human plasma kallikrein
  IC50: 25 nM
[1]
  aPTT (1.5x): 1.30 µM

## CC1C(C)C1CC(C(=O)Nc1ccc(C(=O)O)cc1)c1ccc(-c2c(OC(F)F)ccc(Cl)c2F)c[n+]1[O-] (single isomer, unassigned) [Example 98, 2-(1-((4-carboxyphenyl)amino)-3-(2,3-dimethylcyclopropyl)-1-oxopropan-2-yl)-5-(3-chloro-6-(difluoromethoxy)-2-fluorophenyl)pyridine 1-oxide]
Human plasma kallikrein
  IC50: 11.3 nM
[1]
  aPTT (1.5x): 0.72 µM

## COc1cc(C(CC2CC2)C(=O)Nc2ccc(C(=O)O)cc2)[n+]([O-])cc1-c1c(OC(F)F)ccc(Cl)c1F (single isomer, unassigned) [Example 70, 2-(1-((4-carboxyphenyl)amino)-3-cyclopropyl-1-oxopropan-2-yl)-5-(3-chloro-6-(difluoromethoxy)-2-fluorophenyl)-4-methoxypyridine 1-oxide]
Human plasma kallikrein
  IC50: 3.3 nM
[1]
  aPTT (1.5x): 0.82 µM

## CC1C(C)C1CC(C(=O)Nc1ccc(C(=O)O)cc1)c1ccc(-c2c(OC(F)F)ccc(Cl)c2F)c[n+]1[O-] (single isomer, unassigned) [Example 99, 2-(1-((4-carboxyphenyl)amino)-3-(2,3-dimethylcyclopropyl)-1-oxopropan-2-yl)-5-(3-chloro-6-(difluoromethoxy)-2-fluorophenyl)pyridine 1-oxide]
Human plasma kallikrein
  IC50: 92 nM
[1]
  aPTT (1.5x): 2.78 µM

## O=C(O)c1ccc(NC(=O)C(CC2CC2C(F)(F)F)c2ccc(-c3c(C(F)F)ccc(Cl)c3F)c[n+]2[O-])cc1 (single isomer, unassigned) [Example 88, 2-(1-((4-carboxyphenyl)amino)-1-oxo-3-(2-(trifluoromethyl)cyclo-propyl)propan-2-yl)-5-(3-chloro-6-(difluoromethyl)-2-fluorophenyl)pyridine 1-oxide]
Human plasma kallikrein
  IC50: 3.6 nM
[1]
  aPTT (1.5x): 1.43 µM

## O=C(O)c1ccc(NC(=O)C(C[C@H]2CC[C@H](O)CC2)c2ccc(-c3c(OC(F)F)ccc(Cl)c3F)c[n+]2[O-])cc1 (single isomer, unassigned) [Example 35]
Human plasma kallikrein
  IC50: 12 nM
[1]
  aPTT (1.5x): 0.39 µM

## COC(=O)c1ccc(NC(=O)C(CC2CC2)c2ccc(-c3c(C(F)F)ccc(Cl)c3F)c[n+]2[O-])cc1 (single isomer, unassigned) [Example 114, 5-(3-chloro-6-(difluoromethyl)-2-fluorophenyl)-2-(3-cyclopropyl-1-((4-(methoxycarbonyl)phenyl)amino)-1-oxopropan-2-yl)pyridine 1-oxide]
Human Factor XIa; @ 1000 nM compound
  FXIa % Inh. @ 1000 nM: 45%
Human Factor XIa
  IC50: 1000 nM
Human plasma kallikrein
  IC50: 201 nM

## CC1CC(CC(C(=O)Nc2ccc(C(=O)O)cc2)c2ccc(-c3c(C(F)(F)F)ccc(Cl)c3F)c[n+]2[O-])C1 (single isomer, unassigned) [Example 75, 2-(1-((4-carboxyphenyl)amino)-3-(3-methylcyclobutyl)-1-oxopropan-2-yl)-5-(3-chloro-2-fluoro-6-(trifluoromethyl)phenyl) pyridine 1-oxide]
Human Factor XIa
  IC50: 3.3 nM
Human plasma kallikrein
  IC50: 77.8 nM

## O=C(O)c1ccc(NC(=O)C(CC23CC(C2)C3)c2ccc(-c3c(OC(F)F)ccc(Cl)c3F)c[n+]2[O-])cc1 (single isomer, unassigned) [Example 52]
Human plasma kallikrein
  IC50: 14 nM
[1]
  aPTT (1.5x): 1.17 µM

## O=C(O)c1ccc(NC(=O)C(CC2CCC2)c2ccc(-c3c(C(F)F)ccc(Cl)c3F)c[n+]2[O-])cc1F (single isomer, unassigned) [Example 120, 2-(1-((4-carboxy-3-fluorophenyl)amino)-3-cyclobutyl-1-oxopropan-2-yl)-5-(3-chloro-6-(difluoromethyl)-2-fluorophenyl)pyridine 1-oxide]
Human plasma kallikrein
  IC50: 2.1 nM
[1]
  aPTT (1.5x): 0.75 µM

## CC1CC1C[C@@H](C(=O)Nc1ccc(C(=O)O)cc1)c1ccc(-c2c(C(F)(F)F)ccc(Cl)c2F)c[n+]1[O-] (single isomer, unassigned) [Example 65]
Human plasma kallikrein
  IC50: 51 nM
[1]
  aPTT (1.5x): 1.86 µM

## O=C(O)c1ccc(NC(=O)C(CC2CC2C(F)(F)F)c2ccc(-c3c(C(F)F)ccc(Cl)c3F)c[n+]2[O-])cc1 (single isomer, unassigned) [Example 87, 2-(1-((4-carboxyphenyl)amino)-1-oxo-3-(2-(trifluoromethyl)cyclopropyl)propan-2-yl)-5-(3-chloro-6-(difluoromethyl)-2-fluorophenyl)pyridine 1-oxide]
Human plasma kallikrein
  IC50: 2.7 nM
[1]
  aPTT (1.5x): 0.92 µM

## COc1cc(C(CC2CC2)C(=O)Nc2ccc(C(=O)O)cc2)[n+]([O-])cc1-c1c(OC(F)F)ccc(Cl)c1F (single isomer, unassigned) [Example 71, 2-(1-((4-carboxyphenyl)amino)-3-cyclopropyl-1-oxopropan-2-yl)-5-(3-chloro-6-(difluoromethoxy)-2-fluorophenyl)-4-methoxypyridine 1-oxide]
Human plasma kallikrein
  IC50: 11 nM
[1]
  aPTT (1.5x): 1.24 µM

## O=C(O)c1ccc(NC(=O)C(CC2CC2)c2ccc(-c3c(OC(F)F)ccc(Cl)c3F)c[n+]2[O-])cc1F (single isomer, unassigned) [Example 73]
Human plasma kallikrein
  IC50: 88 nM
[1]
  aPTT (1.5x): 2.15 µM

## C[C@]1(O)CC[C@@H](CC(C(=O)Nc2ccc(C(=O)O)cc2)c2ccc(-c3c(OC(F)F)ccc(Cl)c3F)c[n+]2[O-])CC1 (single isomer, unassigned) [Example 40, 2-(1-((4-carboxyphenyl)amino)-3-((1s,4s)-4-hydroxy-4-methylcyclohexyl)-1-oxopropan-2-yl)-5-(3-chloro-6-(difluoromethoxy)-2-fluorophenyl)pyridine 1-oxide]
Human Factor XIa
  IC50: 3.2 nM
Human plasma kallikrein
  IC50: 35 nM
